From ChEMBL document CHEMBL1125527, “Disodium (R,R)-5-[2-[[2-(3-chlorophenyl)-2-hydroxyethyl]-amino] propyl]-1,3-benzodioxole-2,2-dicarboxylate (CL 316,243). A potent beta-adrenergic agonist virtually specific for beta 3 receptors. A promising antidiabetic and antiobesity agent” (J Med Chem, 1992)

Tests used:
[1] = target: T1, Beta-2 adrenergic receptor (Rattus norvegicus, UniProt P10608); assay: Compound was evaluated for its binding affinity towards Beta-2 adrenergic receptor in rat soleus membrane by displacing […]; type: cell membranes
[2] = target: T1, Beta-2 adrenergic receptor
Description: In vitro beta-adrenergic activity against beta-1 adrenergic receptor by the inhibition of insulin stimulated [14C]- glucose incorporation into glycogen in isolated rat soleus muscle

[3] = target: Beta-1 adrenergic receptor (Rattus norvegicus, UniProt P18090); assay: Compound was evaluated for its binding affinity towards Beta-1 adrenergic receptor in rat heart membrane by displacing [125I]- iodocyanopindolol; type: cell membranes
[4] = target: Beta-3 adrenergic receptor (Rattus norvegicus, UniProt P26255); assay: In vitro beta-adrenergic activity against beta-3 adrenergic receptor in rat epididymal fat pads by stimulation of glycerol release from adipocytes.; type: functional, tissue-based, Epididymal fat pad
Chain of Beta-3 adrenergic receptor (P26255 whole entry): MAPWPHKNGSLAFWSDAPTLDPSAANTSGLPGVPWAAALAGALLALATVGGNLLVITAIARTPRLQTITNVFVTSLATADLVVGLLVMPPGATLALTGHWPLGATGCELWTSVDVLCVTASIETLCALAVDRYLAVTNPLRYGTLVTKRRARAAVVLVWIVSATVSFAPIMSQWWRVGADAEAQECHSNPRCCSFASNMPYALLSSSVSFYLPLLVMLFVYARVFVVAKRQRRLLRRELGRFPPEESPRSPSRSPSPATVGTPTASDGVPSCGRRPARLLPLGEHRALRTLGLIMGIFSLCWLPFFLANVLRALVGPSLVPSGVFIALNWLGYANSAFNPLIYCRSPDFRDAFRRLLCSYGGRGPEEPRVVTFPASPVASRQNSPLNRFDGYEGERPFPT

T1 sequence (P10608 whole entry): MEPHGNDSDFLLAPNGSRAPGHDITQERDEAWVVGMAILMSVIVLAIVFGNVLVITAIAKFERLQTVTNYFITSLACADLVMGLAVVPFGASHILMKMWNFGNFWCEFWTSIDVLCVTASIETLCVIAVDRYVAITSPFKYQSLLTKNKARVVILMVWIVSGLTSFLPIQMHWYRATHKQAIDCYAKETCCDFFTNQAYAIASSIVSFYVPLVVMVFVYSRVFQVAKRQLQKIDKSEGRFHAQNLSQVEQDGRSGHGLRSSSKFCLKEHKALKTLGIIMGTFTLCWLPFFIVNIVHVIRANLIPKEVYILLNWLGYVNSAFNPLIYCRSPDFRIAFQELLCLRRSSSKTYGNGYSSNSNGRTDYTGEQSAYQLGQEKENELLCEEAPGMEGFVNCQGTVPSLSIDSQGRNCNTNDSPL
Chain of Beta-1 adrenergic receptor (P18090 whole entry): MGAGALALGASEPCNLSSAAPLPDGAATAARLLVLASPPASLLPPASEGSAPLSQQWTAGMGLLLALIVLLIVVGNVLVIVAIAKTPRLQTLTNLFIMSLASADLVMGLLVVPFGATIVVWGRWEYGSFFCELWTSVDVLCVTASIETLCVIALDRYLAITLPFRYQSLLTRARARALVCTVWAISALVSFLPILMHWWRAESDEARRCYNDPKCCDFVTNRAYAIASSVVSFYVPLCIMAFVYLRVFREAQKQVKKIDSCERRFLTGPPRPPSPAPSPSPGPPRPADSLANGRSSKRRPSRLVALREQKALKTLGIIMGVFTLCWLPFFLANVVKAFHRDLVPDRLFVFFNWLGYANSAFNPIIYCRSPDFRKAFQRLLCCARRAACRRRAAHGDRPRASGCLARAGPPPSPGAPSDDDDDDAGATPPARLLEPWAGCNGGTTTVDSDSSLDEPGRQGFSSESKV

C[C@H](Cc1ccc(OCC(=O)O)cc1)NC[C@H](O)c1cccc(Cl)c1
IC50 [1]: 1300 nM | IC50 [2]: 190 nM

COC(=O)COc1ccc(C[C@@H](C)NC[C@H](O)c2cccc(Cl)c2)cc1
IC50 [3]: 59 nM | EC50 [4]: 16 nM | IC50 [1]: 30 nM | IC50 [2]: 500 nM
